# Source: PubChem BioAssay AID248 (DTP/NCI, 2004)
# “And” between values parts separate entries of the source, which are not always exact repeats. Identical values can stand only once. Toxic doses and inconclusive results are not listed.
# System: L1210 leukemia ip in BDF1 mice, survival T/C
# Experiment: NCI In Vivo Anticancer Drug Screen. Data for tumor model L1210 Leukemia (intraperitoneal) in B6D2F1 (BDF1) mice
# Settings: endpoint: mean survival time, higher = longer survival
# Outline: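 Antitumor effect is assessed in tumor-bearing animals. Survival in the compound arm is compared with a vehicle-dosed control arm and expressed as their quotient.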
# [1] = dose: 100.0 mg/kg/injection, schedule: Q04DX002 (ip), vehicle: saline with Tween-80
# [2] = dose: 200.0 mg/kg/injection, schedule: Q04DX002 (ip), vehicle: saline with Tween-80
# [3] = dose: 400.0 mg/kg/injection, schedule: Q04DX002 (ip), vehicle: saline with Tween-80
# [4] = dose: 100.0 mg/kg/injection, schedule: Q04DX003 (ip), vehicle: saline with Tween-80
# [5] = dose: 200.0 mg/kg/injection, schedule: Q04DX003 (ip), vehicle: saline with Tween-80
# [6] = dose: 400.0 mg/kg/injection, schedule: Q04DX003 (ip), vehicle: saline with Tween-80
# [7] = dose: 100.0 mg/kg/injection, schedule: Q04DX002 (ip), vehicle: Klucel (hydroxypropylcellulose) (HPC)
# [8] = dose: 200.0 mg/kg/injection, schedule: Q04DX002 (ip), vehicle: Klucel (hydroxypropylcellulose) (HPC)
# [9] = dose: 100.0 mg/kg/injection, schedule: Q04DX003 (ip), vehicle: Klucel (hydroxypropylcellulose) (HPC)
# [10] = dose: 200.0 mg/kg/injection, schedule: Q04DX003 (ip), vehicle: Klucel (hydroxypropylcellulose) (HPC)
# [11] = dose: 400.0 mg/kg/injection, schedule: Q04DX003 (ip), vehicle: Klucel (hydroxypropylcellulose) (HPC)
# [12] = dose: 100.0 mg/kg/injection, schedule: Q01DX001 (ip), vehicle: saline
# [13] = dose: 200.0 mg/kg/injection, schedule: Q01DX001 (ip), vehicle: saline
# [14] = dose: 100.0 mg/kg/injection, schedule: Q01DX009 (ip), vehicle: saline with Tween-80
# [15] = dose: 400.0 mg/kg/injection, schedule: Q01DX009 (ip), vehicle: saline with Tween-80
# [16] = dose: 400.0 mg/kg/injection, schedule: Q01DX001 (ip), vehicle: saline
compound,measurement,setting,value
CCCCn1cnc2c(=S)nc(N)[nH]c21,T/C,"dose: 3.3 mg/kg/injection, schedule: Q01DX Z (ip), vehicle: methylcellulose (MC)",115 % of control
same,T/C,"dose: 5.0 mg/kg/injection, schedule: Q01DX Z (ip), vehicle: methylcellulose (MC)",118 % of control
same,T/C,"dose: 19.0 mg/kg/injection, schedule: Q04DX003 (ip), vehicle: saline with Tween-80",111 % of control
same,T/C,"dose: 66.0 mg/kg/injection, schedule: Q04DX003 (ip), vehicle: saline with Tween-80",164 % of control
CC(C)=CCC/C(C)=C/CC/C(C)=C/CC(=O)OCC=C(C)C,T/C,[1],89 % of control
same,T/C,[2],99 % of control
same,T/C,[3],99 % of control
Nc1ncnc2c1ncn2C1OC(CCO)C(O)C1O (stereo unspecified),T/C,"dose: 100.0 mg/kg/injection, schedule: Q01DX001 (ip), vehicle: carboxymethylcellulose (CMC)",100 % of control
same,T/C,"dose: 200.0 mg/kg/injection, schedule: Q01DX001 (ip), vehicle: carboxymethylcellulose (CMC)",96 % of control
same,T/C,"dose: 400.0 mg/kg/injection, schedule: Q01DX001 (ip), vehicle: carboxymethylcellulose (CMC)",93 % of control
O=C1C=C(Nc2ccc(S(=O)(=O)N(CCCl)CCCl)cc2)c2ccccc2C1=O,T/C,"dose: 100.0 mg/kg/injection, schedule: Q01DX009 (ip), vehicle: Klucel (hydroxypropylcellulose) (HPC)",97 % of control
same,T/C,"dose: 200.0 mg/kg/injection, schedule: Q01DX009 (ip), vehicle: Klucel (hydroxypropylcellulose) (HPC)",100 % of control
same,T/C,"dose: 400.0 mg/kg/injection, schedule: Q01DX009 (ip), vehicle: Klucel (hydroxypropylcellulose) (HPC)",102 % of control
Nc1ccc2nc3c(N)ccc(N)c3nc2c1,T/C,[1],97 % of control
same,T/C,[2],105 % of control
same,T/C,[3],105 % of control
CCCCCCCC(=O)Nc1ccc(C)cc1C,T/C,[4],95 % of control
same,T/C,[5],98 % of control
same,T/C,[6],94 % of control
C1CN(P(N2CCOCC2)N2CCOCC2)CCO1,T/C,"dose: 100.0 mg/kg/injection, schedule: Q01DX009 (ip), vehicle: saline",104 % of control
same,T/C,"dose: 200.0 mg/kg/injection, schedule: Q01DX009 (ip), vehicle: saline",98 % of control
same,T/C,"dose: 400.0 mg/kg/injection, schedule: Q01DX009 (ip), vehicle: saline",98 % of control
CS(=O)(=O)OCC(COS(C)(=O)=O)(COS(C)(=O)=O)COS(C)(=O)=O,T/C,[7],96 % of control
same,T/C,[8],92 % of control
same,T/C,"dose: 400.0 mg/kg/injection, schedule: Q04DX002 (ip), vehicle: Klucel (hydroxypropylcellulose) (HPC)",107 % of control
CCOC(=O)C(Cc1c[nH]c2ccccc12)C(=O)OCC,T/C,[9],96 % of control
same,T/C,[10],94 % of control
same,T/C,[11],98 % of control
NNS(=O)(=O)Cc1ccccc1,T/C,[12],100 % of control
same,T/C,[13],95 % of control
CCOC(=O)CC(C)(C)NCc1ccccc1,T/C,[9],96 % of control
CC(=O)Nc1ccc(C)c(NC(C)=O)c1,T/C,[9],96 % of control
same,T/C,[10],96 % of control
same,T/C,[11],96 % of control
CCC(=O)CC1CCCC(CC(=O)CC)N1 (stereo unspecified),T/C,"dose: 75.0 mg/kg/injection, schedule: Q01DX001 (ip), vehicle: saline",96 % of control
same,T/C,"dose: 150.0 mg/kg/injection, schedule: Q01DX001 (ip), vehicle: saline",104 % of control
[Cl][Sn]([CH2]c1ccccc1)([CH2]c1ccccc1)[CH2]c1ccccc1,T/C,"dose: 0.39 mg/kg/injection, schedule: Q04DX002 (ip), vehicle: saline with Tween-80",94 % of control
same,T/C,"dose: 0.78 mg/kg/injection, schedule: Q04DX002 (ip), vehicle: saline with Tween-80",106 % of control
same,T/C,"dose: 1.56 mg/kg/injection, schedule: Q04DX002 (ip), vehicle: saline with Tween-80",108 % of control
same,T/C,"dose: 3.13 mg/kg/injection, schedule: Q04DX002 (ip), vehicle: saline with Tween-80",108 % of control
CCCCOP(=O)(OCCCC)Oc1ccc2ccccc2c1,T/C,"dose: 50.0 mg/kg/injection, schedule: Q01DX009 (ip), vehicle: other",97 % of control and 88 % of control
same,T/C,"dose: 100.0 mg/kg/injection, schedule: Q01DX009 (ip), vehicle: other",94 % of control
same,T/C,"dose: 100.0 mg/kg/injection, schedule: Q04DX002 (ip), vehicle: other",94 % of control and 96 % of control
same,T/C,"dose: 100.0 mg/kg/injection, schedule: Q04DX003 (ip), vehicle: carboxymethylcellulose (CMC)",102 % of control
same,T/C,"dose: 200.0 mg/kg/injection, schedule: Q01DX009 (ip), vehicle: other",100 % of control and 102 % of control
same,T/C,"dose: 200.0 mg/kg/injection, schedule: Q04DX002 (ip), vehicle: other",96 % of control and 92 % of control
same,T/C,"dose: 200.0 mg/kg/injection, schedule: Q04DX003 (ip), vehicle: carboxymethylcellulose (CMC)",100 % of control
same,T/C,"dose: 400.0 mg/kg/injection, schedule: Q04DX002 (ip), vehicle: other",94 % of control and 96 % of control
same,T/C,"dose: 400.0 mg/kg/injection, schedule: Q04DX003 (ip), vehicle: carboxymethylcellulose (CMC)",97 % of control
NC(=O)N/N=C(/CCC(=O)O)C(=O)O,T/C,"dose: 100.0 mg/kg/injection, schedule: Q01DX001 (ip), vehicle: acetone",98 % of control
same,T/C,"dose: 100.0 mg/kg/injection, schedule: Q01DX009 (ip), vehicle: acetone",92 % of control
same,T/C,"dose: 100.0 mg/kg/injection, schedule: Q04DX003 (ip), vehicle: saline",89 % of control
same,T/C,"dose: 200.0 mg/kg/injection, schedule: Q01DX001 (ip), vehicle: acetone",103 % of control
same,T/C,"dose: 200.0 mg/kg/injection, schedule: Q01DX009 (ip), vehicle: acetone",100 % of control
same,T/C,"dose: 200.0 mg/kg/injection, schedule: Q04DX003 (ip), vehicle: saline",93 % of control and 87 % of control
same,T/C,"dose: 400.0 mg/kg/injection, schedule: Q01DX001 (ip), vehicle: acetone",95 % of control
same,T/C,"dose: 400.0 mg/kg/injection, schedule: Q01DX009 (ip), vehicle: acetone",94 % of control
same,T/C,"dose: 400.0 mg/kg/injection, schedule: Q04DX003 (ip), vehicle: saline",91 % of control
F[Si](c1cccc2ccccc12)(c1cccc2ccccc12)c1cccc2ccccc12,T/C,[14],93 % of control
same,T/C,[4],92 % of control
same,T/C,"dose: 200.0 mg/kg/injection, schedule: Q01DX009 (ip), vehicle: saline with Tween-80",87 % of control
same,T/C,[5],90 % of control
same,T/C,[15],103 % of control
same,T/C,[6],97 % of control
Cc1csc2c1c(N)nc(=O)n2C1OC(CO)C(O)C1O (stereo unspecified),T/C,"dose: 100.0 mg/kg/injection, schedule: Q01DX005 (ip), vehicle: saline",112 % of control
same,T/C,"dose: 200.0 mg/kg/injection, schedule: Q01DX005 (ip), vehicle: saline",102 % of control
C=CCc1ccc(OC(=O)Nc2ccc(S(=O)(=O)NC3CCCCC3)cc2)c(OC)c1,T/C,[12],91 % of control
same,T/C,[13],94 % of control
same,T/C,[16],96 % of control
Cc1no[n+]([O-])c1C(=O)O,T/C,[7],95 % of control
same,T/C,[8],93 % of control
CS(=O)(=O)OCCN(CCOS(C)(=O)=O)c1cccc(C(F)(F)F)c1,T/C,"dose: 5.0 mg/kg/injection, schedule: Q01DX001 (ip), vehicle: saline",96 % of control
same,T/C,"dose: 10.0 mg/kg/injection, schedule: Q01DX001 (ip), vehicle: saline",100 % of control
same,T/C,"dose: 11.0 mg/kg/injection, schedule: Q01DX015 (ip), vehicle: saline",101 % of control
same,T/C,"dose: 17.0 mg/kg/injection, schedule: Q01DX015 (ip), vehicle: saline",110 % of control
same,T/C,"dose: 20.0 mg/kg/injection, schedule: Q01DX001 (ip), vehicle: saline",102 % of control
same,T/C,"dose: 25.0 mg/kg/injection, schedule: Q01DX015 (ip), vehicle: saline",116 % of control
same,T/C,"dose: 50.0 mg/kg/injection, schedule: Q01DX001 (ip), vehicle: saline",124 % of control
same,T/C,[12],124 % of control
same,T/C,[13],120 % of control
same,T/C,[16],86 % of control
O=C1c2cc([N+](=O)[O-])ccc2CCC1C(O)(C(F)(F)F)C(F)(F)F (stereo unspecified),T/C,"dose: 100.0 mg/kg/injection, schedule: Q01DX001 (ip), vehicle: saline with Tween-80",100 % of control
same,T/C,"dose: 200.0 mg/kg/injection, schedule: Q01DX001 (ip), vehicle: saline with Tween-80",102 % of control
same,T/C,"dose: 400.0 mg/kg/injection, schedule: Q01DX001 (ip), vehicle: saline with Tween-80",100 % of control
Cc1c2ccccc2c(CSCC(N)C(=O)O)c2ccc3ccccc3c12 (stereo unspecified),T/C,[14],87 % of control
same,T/C,[15],87 % of control
